Key:
[1] = test system: HT-29; assay: Cell cycle arrest in human HT-29 cells assessed as accumulation at sub-G1 phase at 1 uM after 24 hrs by flow cytometry; assay type: functional
[2] = test system: HT-29; assay: Cell cycle arrest in human HT-29 cells assessed as accumulation at sub-G1 phase at 0.25 uM after 24 hrs by flow cytometry; assay type: functional
[3] = test system: HeLa; assay: Antiproliferative activity against human HeLa cells after 3 days by MTT assay; assay type: functional, cell-based; conditions: 72 h
[4] = test system: HT-29; assay: Cell cycle arrest in human HT-29 cells assessed as accumulation at sub-G1 phase at 0.5 uM after 24 hrs by flow cytometry; assay type: functional
[5] = test system: HT-29; assay: Cell cycle arrest in human HT-29 cells assessed as accumulation at sub-G1 phase at 0.25 uM after 48 hrs by flow cytometry; assay type: functional
[6] = test system: HT-29; assay: Cell cycle arrest in human HT-29 cells assessed as accumulation at sub-G1 phase at 0.05 uM after 48 hrs by flow cytometry; assay type: functional
[7] = test system: A549; assay: Antiproliferative activity against human A549 cells after 3 days by MTT assay; assay type: functional, cell-based; conditions: A549, 72 h
[8] = test system: HT-29; assay: Cell cycle arrest in human HT-29 cells assessed as accumulation at sub-G1 phase at 0.05 uM after 24 hrs by flow cytometry; assay type: functional
[9] = test system: HT-29; assay: Cell cycle arrest in human HT-29 cells assessed as accumulation at sub-G1 phase at 0.1 uM after 24 hrs by flow cytometry; assay type: functional
[10] = test system: HT-29; assay: Cell cycle arrest in human HT-29 cells assessed as accumulation at sub-G1 phase at 2.5 uM after 48 hrs by flow cytometry; assay type: functional
[11] = test system: HT-29; assay: Antiproliferative activity against human HT-29 cells after 3 days by MTT assay; assay type: functional, cell-based; conditions: HT-29, 72 h
[12] = test system: HT-29; assay: Cell cycle arrest in human HT-29 cells assessed as accumulation at sub-G1 phase at 0.1 uM after 48 hrs by flow cytometry; assay type: functional
[13] = test system: HT-29; assay: Cell cycle arrest in human HT-29 cells assessed as accumulation at sub-G1 phase at 0.5 uM after 48 hrs by flow cytometry; assay type: functional
[14] = test system: HT-29; assay: Cell cycle arrest in human HT-29 cells assessed as accumulation at sub-G1 phase at 1 uM after 48 hrs by flow cytometry; assay type: functional
[15] = test system: HT-29; assay: Cell cycle arrest in human HT-29 cells assessed as accumulation at sub-G1 phase at 2.5 uM after 24 hrs by flow cytometry; assay type: functional

Row | Compound | Activity [1] | Activity [2] | IC50 [3] | Activity [4] | Activity [5] | Activity [6] | IC50 [7] | Activity [8] | Activity [9] | Activity [10] | IC50 [11] | Activity [12] | Activity [13] | Activity [14] | Activity [15]
1 | Nc1ccc2cc3ccc(I)cc3nc2c1CO | 8.7% | 6.3% | 70 nM | 1.7% | 23.7% | 2.14% | 130 nM | 3.9% | 1.4% | 12% | 70 nM | 22.6% | 19.3% | 14.8% | 8.9%
2 | Nc1ccc2cc3ccccc3nc2c1CO | 5.2% | 0.7% | 70 nM | 9.7% | 18.7% | 0.7% | 60 nM | 3.2% | 0.1% | 23.4% | 34 nM | 4.7% | 26.3% | 31.7% | 13.7%
